# According to ChEMBL document CHEMBL1201862, “PubChem BioAssay data set” (2004):
# The source made the active and inactive calls.
# Experiments:
# [1] = A Cell Based Secondary Assay To Explore Cytotoxicity of Compounds that Sensitize Mycobacterium Tuberculosis to Beta-Lactam Antibiotics.; assay type: functional
# [2] = HEp-2 cell cytotoxicity, dose response, cytotoxicity control for RSV inhibitor project, HTS (AID 2410); assay type: functional; conditions: human respiratory syncytial virus
# [3] = target: T1, Heat shock factor protein 1 (Mus musculus, UniProt P38532); test: inhibition of MG132-induced HSE-luciferase signal, confirmation, cell-based, NIH3T3, luminescence, dose retest (AID 2382); assay type: functional;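 note: NIH3T3 fibroblasts with HSF1-driven luciferase reporter stressed by proteasome inhibitor MG132; luminescence from HSF1-driven luciferase expression after 8 hours of MG132 stress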
# T1 sequence (P38532 whole entry): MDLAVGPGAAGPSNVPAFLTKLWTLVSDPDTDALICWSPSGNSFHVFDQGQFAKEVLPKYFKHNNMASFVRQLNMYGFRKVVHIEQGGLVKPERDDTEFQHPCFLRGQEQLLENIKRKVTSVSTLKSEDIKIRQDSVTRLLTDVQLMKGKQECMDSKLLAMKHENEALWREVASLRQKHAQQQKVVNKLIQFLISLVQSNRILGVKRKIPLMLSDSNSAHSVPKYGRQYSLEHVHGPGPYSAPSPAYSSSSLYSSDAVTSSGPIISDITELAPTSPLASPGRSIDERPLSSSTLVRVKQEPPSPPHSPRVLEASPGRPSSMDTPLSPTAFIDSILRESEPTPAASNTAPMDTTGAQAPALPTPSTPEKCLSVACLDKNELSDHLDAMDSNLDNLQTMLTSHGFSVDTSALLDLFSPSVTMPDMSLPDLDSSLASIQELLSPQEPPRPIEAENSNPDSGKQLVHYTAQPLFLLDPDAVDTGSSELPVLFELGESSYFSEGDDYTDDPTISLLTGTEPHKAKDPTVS
# [4] = cells
# [5] = target: T2, Estrogen receptor (Homo sapiens, UniProt P03372);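 note: potency for inhibiting coactivator peptide recruitment to the receptor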
# T2 sequence (P03372 whole entry): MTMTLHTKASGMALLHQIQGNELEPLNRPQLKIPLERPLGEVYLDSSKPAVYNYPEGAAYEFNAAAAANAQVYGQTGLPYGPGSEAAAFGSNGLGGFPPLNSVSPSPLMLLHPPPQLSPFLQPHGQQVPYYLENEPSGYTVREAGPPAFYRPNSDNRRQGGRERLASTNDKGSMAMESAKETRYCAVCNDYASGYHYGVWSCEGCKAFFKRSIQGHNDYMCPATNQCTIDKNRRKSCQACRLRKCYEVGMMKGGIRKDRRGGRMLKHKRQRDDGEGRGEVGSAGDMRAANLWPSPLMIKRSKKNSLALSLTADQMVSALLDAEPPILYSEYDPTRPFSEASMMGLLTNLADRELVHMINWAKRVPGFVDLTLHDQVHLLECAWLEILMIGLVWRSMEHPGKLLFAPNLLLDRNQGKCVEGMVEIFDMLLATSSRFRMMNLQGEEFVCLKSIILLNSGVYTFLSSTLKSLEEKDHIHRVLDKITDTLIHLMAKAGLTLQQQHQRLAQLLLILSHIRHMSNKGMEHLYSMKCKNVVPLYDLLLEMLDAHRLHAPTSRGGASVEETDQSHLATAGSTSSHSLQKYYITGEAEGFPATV
# [6] = test system: H9c2; test: cells; assay type: functional, cell-based; conditions: Rattus norvegicus, H9c2, Myocardium;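 note: confirmatory concentration-response retest of ultra-high-throughput screening hits for modulation of myocardial damage; cell death induced by hydrogen peroxide oxidative stress; compound pretreatment for 60 min then peroxide exposure for 2 h; potency is for protecting the cells against peroxide damage rather than for killing them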
# [7] = target: T3, CAAX prenyl protease 2 (Saccharomyces cerevisiae S288c, UniProt Q03530); assay type: biochemical
# T3 sequence (Q03530 whole entry): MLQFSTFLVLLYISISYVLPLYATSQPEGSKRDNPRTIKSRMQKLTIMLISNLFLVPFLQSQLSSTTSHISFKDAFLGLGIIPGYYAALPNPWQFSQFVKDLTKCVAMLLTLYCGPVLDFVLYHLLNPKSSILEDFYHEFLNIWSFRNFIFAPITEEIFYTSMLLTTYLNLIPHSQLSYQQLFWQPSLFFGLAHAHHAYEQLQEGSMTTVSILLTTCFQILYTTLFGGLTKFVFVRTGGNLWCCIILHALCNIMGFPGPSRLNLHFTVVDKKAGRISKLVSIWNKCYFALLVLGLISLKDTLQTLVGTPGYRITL
# [8] = inhibitors of intracellular T. cruzi replication, confirmation, NIH3T3 host cells, beta-gal luminescence (AID 2044); assay type: functional, cell-based;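 note: intracellular parasites grown in NIH/3T3 mouse fibroblasts as host cells; luminescent beta-galactosidase reporter signal from transgenic T. cruzi replicating inside host cells; inhibitors lower the luminescence signal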
# [9] = cytotoxicity toward NIH3T3 fibroblasts, dose response, counter-screen, cell-based, ATP luminescence, mouse fibroblasts (AID 2010); assay type: functional;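 note: cells exposed to compound for about 90 hours before reading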
# [10] = target: T4, Ubiquitin-conjugating enzyme E2 N (Homo sapiens, UniProt P61088); assay type: functional;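 note: Dose-response confirmation in a TR-FRET assay detecting UBC13-driven polyubiquitin chain formation, inhibition measured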
# T4 sequence (P61088 whole entry): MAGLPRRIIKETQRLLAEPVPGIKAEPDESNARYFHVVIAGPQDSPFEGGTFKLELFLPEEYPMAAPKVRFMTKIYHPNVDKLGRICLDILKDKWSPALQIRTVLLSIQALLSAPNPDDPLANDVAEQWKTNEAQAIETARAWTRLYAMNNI
# [11] = test system: INS1; test: beta cell apoptosis inhibitors, cytokine rescue, dose response, luminescence, retest (AID 449756); assay type: functional, cell-based; conditions: Rattus norvegicus;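 note: cell death triggered by IL-1 beta plus TNF-alpha plus IFN-gamma mixture; protective hits raise ATP signal compared with cytokine alone wells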
# [12] = target: T5, DNA repair protein RAD52 homolog (Homo sapiens, UniProt P43351); assay type: functional, biochemical
# T5 sequence (P43351 whole entry): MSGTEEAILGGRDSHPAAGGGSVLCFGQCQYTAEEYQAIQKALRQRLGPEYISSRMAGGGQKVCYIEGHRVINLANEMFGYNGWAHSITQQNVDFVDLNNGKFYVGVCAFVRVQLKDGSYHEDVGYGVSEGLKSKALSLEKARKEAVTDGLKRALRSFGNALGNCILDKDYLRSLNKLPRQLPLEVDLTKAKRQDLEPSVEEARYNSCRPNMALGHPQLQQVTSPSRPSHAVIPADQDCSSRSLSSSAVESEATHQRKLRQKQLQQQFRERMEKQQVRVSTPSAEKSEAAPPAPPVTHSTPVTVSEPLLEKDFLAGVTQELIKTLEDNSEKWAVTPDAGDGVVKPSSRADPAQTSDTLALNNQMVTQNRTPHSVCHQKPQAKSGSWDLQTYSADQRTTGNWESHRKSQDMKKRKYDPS
# [13] = target: T6, Mucolipin-3 (Homo sapiens, UniProt Q8TDD5); test: Dose response cell-based high-throughput screening assay for agonists of the transient receptor potential channel ML3 (TRPML3). [Related pubchem assays: 1526, 1424, 1448 ]; assay type: functional
# T6 sequence (Q8TDD5 whole entry): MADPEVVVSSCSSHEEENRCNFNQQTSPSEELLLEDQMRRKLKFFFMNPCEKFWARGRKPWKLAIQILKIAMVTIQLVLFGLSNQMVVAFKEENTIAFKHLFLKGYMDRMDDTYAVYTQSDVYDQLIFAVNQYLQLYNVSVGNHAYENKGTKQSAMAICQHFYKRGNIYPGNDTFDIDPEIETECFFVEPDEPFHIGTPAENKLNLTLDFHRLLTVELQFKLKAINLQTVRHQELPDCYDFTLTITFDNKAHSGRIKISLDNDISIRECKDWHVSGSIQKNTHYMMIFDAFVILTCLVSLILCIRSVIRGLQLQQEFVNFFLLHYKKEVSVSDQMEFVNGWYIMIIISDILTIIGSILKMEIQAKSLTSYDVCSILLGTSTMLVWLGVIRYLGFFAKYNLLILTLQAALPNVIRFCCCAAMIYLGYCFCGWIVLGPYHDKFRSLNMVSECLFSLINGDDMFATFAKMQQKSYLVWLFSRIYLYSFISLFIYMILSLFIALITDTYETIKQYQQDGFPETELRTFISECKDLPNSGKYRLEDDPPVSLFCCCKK
# [14] = target: Ion channel NompC (Danio rerio, UniProt Q7T1G6); test: Fluorescence counterscreen assay for TRPML3 agonists: dose response cell-based high-throughput screening assay to identify agonists of the transient receptor potential channel N1 (TRPN1). [Related pubchem assays: 1526, 1424, 1448 ]; assay type: functional
# Sequence of Ion channel NompC (Q7T1G6 whole entry): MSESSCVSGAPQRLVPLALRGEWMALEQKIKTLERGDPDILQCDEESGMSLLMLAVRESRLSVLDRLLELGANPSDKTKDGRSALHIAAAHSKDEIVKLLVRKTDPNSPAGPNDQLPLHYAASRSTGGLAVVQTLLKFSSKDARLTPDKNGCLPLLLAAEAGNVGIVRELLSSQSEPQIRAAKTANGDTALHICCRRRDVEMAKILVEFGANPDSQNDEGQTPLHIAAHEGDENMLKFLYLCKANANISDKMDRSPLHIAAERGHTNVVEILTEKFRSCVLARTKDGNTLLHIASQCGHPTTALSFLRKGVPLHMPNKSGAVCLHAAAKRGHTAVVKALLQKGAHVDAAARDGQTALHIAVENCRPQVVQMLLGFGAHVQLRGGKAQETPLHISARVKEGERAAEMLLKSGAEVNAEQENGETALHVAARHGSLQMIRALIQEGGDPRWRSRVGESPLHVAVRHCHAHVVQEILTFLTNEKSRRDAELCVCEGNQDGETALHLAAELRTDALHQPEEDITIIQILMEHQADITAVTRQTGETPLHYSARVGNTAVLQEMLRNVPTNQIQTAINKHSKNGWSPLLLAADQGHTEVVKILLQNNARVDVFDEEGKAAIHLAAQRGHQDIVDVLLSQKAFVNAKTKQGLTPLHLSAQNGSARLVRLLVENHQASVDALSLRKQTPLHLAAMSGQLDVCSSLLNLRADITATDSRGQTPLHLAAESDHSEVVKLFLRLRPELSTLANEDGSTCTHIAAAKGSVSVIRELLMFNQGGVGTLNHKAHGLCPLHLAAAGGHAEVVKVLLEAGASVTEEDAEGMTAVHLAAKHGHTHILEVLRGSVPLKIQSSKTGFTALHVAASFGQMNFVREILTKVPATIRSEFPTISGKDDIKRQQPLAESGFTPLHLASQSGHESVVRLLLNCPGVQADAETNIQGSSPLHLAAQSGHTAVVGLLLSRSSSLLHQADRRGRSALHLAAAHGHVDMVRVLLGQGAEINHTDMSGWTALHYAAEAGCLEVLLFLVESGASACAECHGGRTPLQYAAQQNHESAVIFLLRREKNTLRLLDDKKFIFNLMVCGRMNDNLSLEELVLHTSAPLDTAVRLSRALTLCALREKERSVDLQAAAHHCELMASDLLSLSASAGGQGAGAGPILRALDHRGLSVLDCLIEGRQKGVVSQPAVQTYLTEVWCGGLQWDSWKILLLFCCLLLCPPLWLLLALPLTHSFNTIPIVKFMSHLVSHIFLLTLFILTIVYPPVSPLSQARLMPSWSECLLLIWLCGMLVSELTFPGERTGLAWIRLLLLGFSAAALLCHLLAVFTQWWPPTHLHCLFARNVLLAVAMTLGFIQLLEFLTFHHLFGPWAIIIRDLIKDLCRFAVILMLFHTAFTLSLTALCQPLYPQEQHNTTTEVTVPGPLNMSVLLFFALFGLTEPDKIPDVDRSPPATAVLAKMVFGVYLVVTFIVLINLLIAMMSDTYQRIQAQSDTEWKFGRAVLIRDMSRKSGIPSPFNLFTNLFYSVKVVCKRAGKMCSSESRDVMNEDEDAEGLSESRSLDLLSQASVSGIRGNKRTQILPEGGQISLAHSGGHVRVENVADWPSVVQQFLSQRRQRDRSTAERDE
# [15] = target: T7, Leucine aminopeptidase (Plasmodium falciparum 3D7, UniProt Q8IL11); test: P. falciparum M17LAP inhibitors, primary screen, biochemical, fluorogenic H-Leu-NHMec substrate, 1536-well (AID 1619); assay type: functional
# T7 sequence (Q8IL11 whole entry): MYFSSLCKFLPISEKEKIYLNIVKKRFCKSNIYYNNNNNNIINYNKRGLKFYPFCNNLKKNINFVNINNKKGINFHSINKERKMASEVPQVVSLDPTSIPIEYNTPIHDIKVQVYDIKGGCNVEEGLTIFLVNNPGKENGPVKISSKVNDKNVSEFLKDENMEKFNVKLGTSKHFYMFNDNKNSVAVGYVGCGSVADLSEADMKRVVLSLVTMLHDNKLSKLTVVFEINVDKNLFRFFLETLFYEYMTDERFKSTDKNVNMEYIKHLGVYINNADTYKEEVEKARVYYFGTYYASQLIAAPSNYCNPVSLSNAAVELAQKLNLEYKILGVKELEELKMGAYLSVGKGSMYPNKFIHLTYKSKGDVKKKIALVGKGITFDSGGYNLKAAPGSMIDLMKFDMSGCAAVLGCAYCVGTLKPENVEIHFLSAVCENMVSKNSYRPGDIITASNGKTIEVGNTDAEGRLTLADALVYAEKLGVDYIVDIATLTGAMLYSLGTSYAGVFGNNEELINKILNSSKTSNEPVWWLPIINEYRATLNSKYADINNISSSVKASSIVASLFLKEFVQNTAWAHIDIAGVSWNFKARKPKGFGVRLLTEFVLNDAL
# [16] = target: FAD-linked sulfhydryl oxidase ALR (Homo sapiens, UniProt P55789); test: inhibitors of human ALR sulfhydryl oxidase, dose response, biochemical, H2O2 detection, luminescence, cherry-pick (AID 493248)
# Sequence of FAD-linked sulfhydryl oxidase ALR (P55789 whole entry): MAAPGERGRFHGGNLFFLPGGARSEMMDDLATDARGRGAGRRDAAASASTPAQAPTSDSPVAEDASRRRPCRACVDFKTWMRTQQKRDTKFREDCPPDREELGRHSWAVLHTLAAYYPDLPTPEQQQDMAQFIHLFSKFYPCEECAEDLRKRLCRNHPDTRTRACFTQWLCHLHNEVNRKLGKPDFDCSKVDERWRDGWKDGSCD
# [17] = target: T8, Calpain-2 catalytic subunit (Sus scrofa, UniProt P43367); test: pig calpain II inhibitor potency, dose response, biochemical, fluorogenic peptide substrate (AID 1420); assay type: functional
# T8 sequence (P43367 whole entry): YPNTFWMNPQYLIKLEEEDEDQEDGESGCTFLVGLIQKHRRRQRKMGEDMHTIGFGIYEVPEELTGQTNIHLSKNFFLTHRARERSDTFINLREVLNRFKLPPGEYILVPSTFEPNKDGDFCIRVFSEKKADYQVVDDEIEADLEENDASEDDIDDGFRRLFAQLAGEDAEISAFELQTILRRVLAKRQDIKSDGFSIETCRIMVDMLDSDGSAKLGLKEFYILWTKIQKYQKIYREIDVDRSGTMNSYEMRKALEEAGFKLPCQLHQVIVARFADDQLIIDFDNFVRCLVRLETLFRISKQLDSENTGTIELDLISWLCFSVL
# [18] = cytotoxicity in HPDE-C7 cells, cell-based, fluorescence, HTS (AID 430); assay type: functional; conditions: Homo sapiens
# [19] = cytotoxicity in KRAS-transformed pancreatic duct cells, primary screen, cell-based, fluorescence, HTS (AID 431); assay type: functional; conditions: Homo sapiens;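 note: cell line used: HPDE-C7K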
# [20] = THP-1 cell cytotoxicity, dose response, cytotoxicity control for non-replicating M. tuberculosis project (AID 489025); assay type: functional
# [21] = cells; assay type: functional
# [22] = target: Cytochrome P450 2D6 (Homo sapiens, UniProt P10635);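 note: CYP2D6 member of a cytochrome P450 panel assay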
# Sequence of Cytochrome P450 2D6 (P10635 whole entry): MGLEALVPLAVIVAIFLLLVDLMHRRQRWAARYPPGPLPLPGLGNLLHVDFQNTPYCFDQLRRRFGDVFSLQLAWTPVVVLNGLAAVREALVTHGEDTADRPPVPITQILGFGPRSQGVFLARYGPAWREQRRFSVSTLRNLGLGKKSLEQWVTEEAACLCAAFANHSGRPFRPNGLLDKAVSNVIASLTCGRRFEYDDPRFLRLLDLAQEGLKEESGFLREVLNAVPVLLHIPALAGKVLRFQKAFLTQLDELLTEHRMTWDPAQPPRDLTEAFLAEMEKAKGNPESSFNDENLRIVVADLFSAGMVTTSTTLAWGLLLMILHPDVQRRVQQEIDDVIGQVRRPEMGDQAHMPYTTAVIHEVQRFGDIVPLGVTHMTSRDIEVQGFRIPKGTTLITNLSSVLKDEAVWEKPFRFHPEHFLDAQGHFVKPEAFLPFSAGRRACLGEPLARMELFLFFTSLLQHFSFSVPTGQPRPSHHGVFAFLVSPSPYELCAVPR
structure (smiles),measurement,setting,value
O=C(CCNc1ccc(F)cc1)c1cccc([N+](=O)[O-])c1,CC50,[1],> 40 µM (active)
Cc1cccc(C)c1-n1c(C)cc(/C=C2\NC(=O)NC2=O)c1C,CC50,[2],24.6 µM (active)
same,EC50,[3],> 195 µM (not active)
same,IC50,[4],8.7 µM (active)
COc1ccc(C)cc1-n1nnnc1SCC(=O)NC(=O)NCc1ccco1,IC50,[5],9.48 µM (active)
COc1ccc(Br)cc1/C=N/NC(=O)CNC(=O)/C=C/c1ccccc1,CC50,[1],32.1 µM (active)
same,IC50,[6],15.3 µM (active)
O=S(=O)(c1ccccc1)N1CCC(c2nc(O)c3nnn(Cc4ccc5c(c4)OCCO5)c3n2)CC1,CC50,[2],28.4 µM (active)
same,IC50,[4],18.4 µM (active)
COc1ccc(-n2nc(C(=O)NCC(=O)N(C)Cc3ccccc3)c3ccccc3c2=O)cc1,AC50,[7],70.8 µM (active)
Cc1ccc(C(=O)N/C(=C\c2ccc(-c3ccc(Cl)cc3)o2)C(=O)NCCCN(C)C)cc1,CC50,[1],11.2 µM (active)
same,EC50,[8],1.63 µM (active)
same,EC50,[9],> 30 µM (not active)
same,IC50,[10],> 20 µM (inactive)
same,AC50,[11],7.74 µM (active)
same,AC50,[12],18.5 µM (active)
CC1CCN(Cc2c(C(=O)N/N=C/c3cccc(C(F)(F)F)c3)nnn2-c2nonc2N)CC1,AC50,[7],0.254 µM (active)
C/C(N)=C(/C#N)C(=O)COC(=O)c1cccc(C)c1O,IC50,[4],9.45 µM (active)
COc1ccc(OC)c(S(=O)(=O)N2CCCc3ccccc32)c1,EC50,[13],3.58 µM (active)
same,EC50,[14],> 29.9 µM (not active)
Cc1[nH]c2ccccc2c1N=Nc1cccc(C(=O)O)c1,IC50,[15],80.8 µM (active)
same,AC50,[16],0.663 µM (active)
O=S(=O)(N1CCCCC1)N1CCN(c2cc(Cl)ccc2Cl)CC1,EC50,[13],2.07 µM (active)
same,IC50,[17],4.07 µM (not active)
same,EC50,[14],> 29.9 µM (not active)
CC(CN1CCOCC1)OC(=O)c1ccc(Br)cc1 (stereo unspecified),EC50,[18],6.73 µM (active)
same,EC50,[19],9.11 µM (active)
same,CC50,[20],38.2 µM (active)
same,IC50,[21],5.68 µM (active)
Cc1cc(C)c(S(=O)(=O)c2c(C)cccc2C)c(OCC(C)C)n1,EC50,[13],4.35 µM (active)
same,EC50,[14],> 29.9 µM (not active)
O=C(N/N=C/c1ccccc1C(=O)O)c1ccc(COc2cccc3cccnc23)cc1,IC50,[15],18.4 µM (active)
O=C(CN1CCN(S(=O)(=O)c2ccc(F)cc2)CC1)Nc1ccc(Cl)c(C(F)(F)F)c1,CC50,[2],4.99 µM (active)
same,EC50,[13],3.5 µM (active)
same,EC50,[14],> 29.9 µM (not active)
same,AC50,[22],39.8 µM (inconclusive)
